Test results from patent US8512695B2 (priority 2008, dated 2013).
Read-outs that look alike come from different tables or passages of the source.

What was measured:
adipocytes of fat grafts = assay: Apoptosis quantification in explanted fat grafts (Mito-PT / Apo-One fluorescent labels, plate reader); format: in vivo; conditions: for apoptosis level (words): early engraftment period, first ten days
Experimental: Apoptosis Identification. Immunochemistry apoptosis specific fluorescent labels FLIVO™ and MT Mito™ were used to identify apoptosis in adipocytes. Fat grafts were explanted, treated with Blendzyme (Roche Applied Science Liberase Blendzyme 3) at 38° C. for 20 minutes, and passed through a 100 micron cell strainer (to remove extra-cellular stromal elements left behind after digestion). These cells were then incubated for one hour at 38° C., and washed once following labeling. Afterwards these cells were placed into 96 well black plates, and read on a plate reader (Molecular Devices, SpectraMax M2) at their dye-specific emission and excitation wavelengths (FLIVO-red ex 565/em>590, MITO-PT ex 488/em green 530, red 590).
Fat Processing. Lipoaspirate was taken directly from the operating room. It was separated into 30 cc aliquots, and washed once with an equal volume of normal saline to remove blood and cellular debris. Afterwards, the tubes were centrifuged at 200G and the middle layer was separated and treated with various agents. These agents were treated in 30 cc washes, with 30 cc of fat for 30 minutes at 37° C. This incubation was chosen to minimize ischemic time while allowing for sufficient mixing with treatment agents. Following incubation and washing, the fat was again centrifuged at 200G. The middle fat layer was again separated and placed in 1.0 cc, 1.0 g aliquots for injection into the flanks of nude mice. This was performed under IRB approval for use of de-identified discarded tissue. Of note, the harvesting cannulas and harvesting pressures varied case by case and surgeon by surgeon. Fat was engrafted into animals within two hours of collection from the operating room in order to minimize warm ischemia time.
Experimental Model. Nude mice were implanted with 1.0 cc/1.0 g (+/−0.01 gm) fat grafts in a single lobule. These mice were injected with a 14 gauge angio-catheter to simulate a clinically relevant 1 cc injection. Two lobules were implanted into bilateral flanks of each nude mouse used in the study. The 14 gauge angio-catheter was chosen to minimize fat graft trauma during injection. Many clinicians use 16 and 14 gauge catheters currently for fat grafting, thus this size catheter was used to approximate clinical practice.
Initially, the lobules were explanted daily and measured for weight and apoptotic activity. After early curves were generated, lobules were explanted on days 3, 6, and 9, for the primary measurement of apoptosis levels. Additionally these samples were weighed, sent for histology, and measured for DNA content. Endpoints in the first ten days were compared to endpoints at six weeks to determine whether graft performance can be accurately predicted by early apoptosis and cell death.
Each experiment consisted of an early group and a late group of mice. Each group was injected with the same fat from a single patient on a single day. For the early time points two animals were euthanized on each sampling day for each group (n=4 lobules per each early time point). Additionally, animals from these same groups were then euthanized at six weeks for examination of late endpoints (8 animals generating 16 lobules were used for each group of late time points). Once an animal was euthanized, both lobules were collected analyzed, and the animal was removed from the study.
Apoptosis Quantification. Initially, lobules were explanted daily and measured for levels of apoptosis using Mito-PT. After daily testing, it was noted that peak levels of apoptosis occurred between days 5-7, and then trended back down. These values fell approximately in a bell shaped curve. Once this curve was determined, subsequent samples were tested on days 0, 3, 6, and 9, for a sampling of early apoptosis (see FIG. 7).

fat grafts [1] = assay: Weight / reabsorption by weight of 1.0 cc/1.0 g fat grafts; format: in vivo, nude mice
Experimental: (§1) Fat Processing. Lipoaspirate was taken directly from the operating room. It was separated into 30 cc aliquots, and washed once with an equal volume of normal saline to remove blood and cellular debris. Afterwards, the tubes were centrifuged at 200G and the middle layer was separated and treated with various agents. These agents were treated in 30 cc washes, with 30 cc of fat for 30 minutes at 37° C. This incubation was chosen to minimize ischemic time while allowing for sufficient mixing with treatment agents. Following incubation and washing, the fat was again centrifuged at 200G. The middle fat layer was again separated and placed in 1.0 cc, 1.0 g aliquots for injection into the flanks of nude mice. […] Fat was engrafted into animals within two hours of collection from the operating room in order to minimize warm ischemia time.
Each experiment consisted of an early group and a late group of mice. […] For the early time points two animals were euthanized on each sampling day for each group (n=4 lobules per each early time point). Additionally, animals from these same groups were then euthanized at six weeks for examination of late endpoints (8 animals generating 16 lobules were used for each group of late time points). Once an animal was euthanized, both lobules were collected analyzed, and the animal was removed from the study.

fat grafts [2] = format: in vivo
Experimental: as §1
Experimental Model. Nude mice were implanted with 1.0 cc/1.0 g (+/−0.01 gm) fat grafts in a single lobule. […]
Initially, the lobules were explanted daily and measured for weight and apoptotic activity. […] Additionally these samples were weighed, sent for histology, and measured for DNA content. […]
Each experiment consisted of an early group and a late group of mice. […] Once an animal was euthanized, both lobules were collected analyzed, and the animal was removed from the study.

[3] = Day 3, comparison experiments of FIG. 8
[4] = Day 6, comparison experiments of FIG. 8
[5] = agents tested for potential additive effects with P188, saline in this group 0.74 g

## CCCCCCCCCCCCCCCC[N+](C)(C)C.[Cl-] [CTA, cetyltrimethylammonium chloride]
Adipocytes of fat grafts; [3]
  apoptosis level: 35,338 RFUs
Adipocytes of fat grafts; [4]
  apoptosis level: 35,338 RFUs
Adipocytes of fat grafts
  apoptosis level (words): higher levels of apoptosis than normal saline controls at earlier time points

## Oc1ccc(C=Cc2cc(O)cc(O)c2)cc1 [resveratrol]
Fat grafts [1]; [5]
  weight at six weeks: 0.73 ± 0.03 g
Fat grafts [2]; mouse, in vivo
  overall effect on / toxicity to fat grafts: toxic

## CC(C)CCC[C@@H](C)[C@H]1CC[C@H]2[C@@H]3CC=C4C[C@@H](O)CC[C@]4(C)[C@H]3CC[C@]12C [cholesterol]
Fat grafts [1]; [5]
  weight at six weeks: 0.73 ± 0.04 g
Fat grafts [2]; conclusion over early and late endpoints
  overall effect on / toxicity to fat grafts: toxic

## CCCCCCCCCCCCCCCC[N+](C)(C)C.[Br-] [HCTA, Hexadecyltrimethylammonium bromide]
Adipocytes of fat grafts; [3]
  apoptosis level: 31,076 RFUs
Adipocytes of fat grafts; [4]
  apoptosis level: 41,037 RFUs
Adipocytes of fat grafts
  apoptosis level (words): higher levels of apoptosis than normal saline controls at earlier time points

## O=C1O[C@H]([C@@H](O)CO)C(O)=C1O [vitamin C, ascorbic acid]
Adipocytes of fat grafts
  apoptosis level (words): high levels of apoptosis

## O=C(O)CCCC[C@@H]1CCSS1 (racemic) [lipoic acid]
Fat grafts [1]; 1.0 cc/1.0 g graft implanted, six weeks
  weight at six weeks: 0.65 ± 0.09 g
Fat grafts [1]; six weeks
  reabsorption by weight: statistically significant differences in reabsorption
Adipocytes of fat grafts
  apoptosis level (words): decreased apoptosis during the engraftment period when compared to saline treated controls

## Phosphatidylcholine [PC]
Adipocytes of fat grafts; [3]
  apoptosis level: 52,000 RFUs
Adipocytes of fat grafts; listed as Phosphatidylcholine
  apoptosis level (words): elevated levels of apoptosis compared to P188
Adipocytes of fat grafts; listed as phosphatidylcholine
  apoptosis level (words): some protective effect, but not to the same magnitude as P188
